From the NIST ThermoML archive (doi:10.1016/j.jct.2016.03.012)

Test: wn = mass fraction of the nth substance listed
Conditions: 101 kPa, Liquid; for viscosity: Capillary tube (Ostwald / Ubbelohde) method; for speed of sound: Frequency=3 MHz, Linear variable-path acoustic interferometer; for mass density: Pycnometric method

O=C[C@@H](O)[C@@H](O)[C@H](O)[C@H](O)CO [D-mannose] + O
Conditions | mass density, w1 = 0.025 [kg/m3] | mass density, w1 = 0.05 [kg/m3] | speed of sound, w1 = 0.025 [m/s] | speed of sound, w1 = 0.05 [m/s] | viscosity, w1 = 0.025 [mPa·s] | viscosity, w1 = 0.05 [mPa·s]
293.15 K | – | 1017.15 | 1495.7 | 1508.3 | 1.074 | 1.146
298.15 K | – | 1016.04 | 1506.6 | 1516.6 | 0.9514 | 1.007
303.15 K | 1005.29 | 1014.73 | 1516.9 | 1525.2 | 0.8479 | 0.8925
308.15 K | 1003.71 | 1013.21 | 1526.9 | 1534.1 | 0.7636 | 0.8017
313.15 K | 1001.93 | 1011.5 | 1535.2 | 1542.6 | 0.6922 | 0.7265
318.15 K | 999.95 | 1009.58 | 1543 | 1551 | 0.6347 | 0.6654
